Source: patent publication US20220110916A1, “Antioxidant and Use Thereof” (Bioradical Research Institute Corp., priority 2019, published 2022)

Legend:
[1] = system: rat auricular subcutaneous blood vessel; experiment: Vasodilation of rat auricular subcutaneous blood vessel after intravenous administration; type: in vivo
Description: Oxidative stress caused by reactive oxygen species is known to reduce NO production in vascular endothelial cells, resulting in vasoconstriction and decreased blood flow. Therefore, using vasodilation as an indicator, it was examined whether the antioxidant of the present invention scavenges reactive oxygen species in vivo.
Eight-week old or older female rats (Wistar, body weight: approximately 200 g, n=1) were anesthetized by subcutaneous administration of urethane so as to be […] body weight. The hair of the auricles of the rats was then removed and the rats were fixed on a fixing table. […]
BisEP-C3 was dissolved in a saline solution to achieve a concentration of 3 mg/ml. […] Then, the hemodynamic course of the rat auricular subcutaneous blood vessel was photographed and recorded using a microscope at a predetermined period of time (30, 60, 120 or 180 minutes) before and after the administration.
The obtained images were classified into three blood vessel thicknesses (thick: 35-45 μm, medium: 15-20 μm, thin: 7-9 μm) based on the diameter of the blood vessel before administration. […] Further, for each selected site, the relative blood vessel diameter was calculated after the measurement of the blood vessel diameter, with the blood vessel diameter before administration being a reference (1). […]

[2] = system: mesentery blood vessels of rats given lipopolysaccharide; experiment: LPS-induced mesenteric bleeding and leukocyte rolling in rats; type: in vivo, rat
Description: Administration of lipopolysaccharide to the mesentery vicinity blood vessels generates reactive oxygen species (ROS), causing vascular disorder and bleeding. Therefore, using the bleeding area as an indicator, it was examined whether the antioxidant of the present invention scavenges ROS in vivo.
Eight-week old or older female rats (Wistar, body weight: approximately 200 g, n=1) were anesthetized by subcutaneous administration of urethane (1.75 g/kg body weight). The rats were then opened and fixed on a fixing table in such a manner that the mesentery of the rats was observable. After the fixing, the fixing table was placed under a microscope (Nikon OPTIphoto, produced by Nikon Corporation) so that the mesentery could be observed. In addition, a catheter was placed in the groin vein of the rat.
1 μg/ml of lipopolysaccharide ((LPS), produced by Sigma-Aldrich Co., Ltd.) derived from Pseudomonas aeruginosa (ATCC27316) was added dropwise once (20 μL, 20 ng/sight) and allowed to stand for 30 minutes. […] In the obtained photograph, the area of the region where bleeding occurred (bleeding area) was detected based on the number of pixels, and then the proportion of the area (bleeding area proportion) occupied per visual field was calculated. […]

**Q.** For `CCN1N=C(C)/C(=C\C=C\c2c(C)nn(CC)c2O)C1=O` (racemic) [BisEp-C3, 2,4-dihydro-4-[3-(1-ethyl-5-hydroxy-3-methyl-1H-pyrazol-4-yl)-2-propen-1-ylidene]-2-ethyl-5-methyl-3H-pyrazol-3-one], which “relative value of the blood vessel diameter” value ([1]; 3 mg/kg body weight intravenously, 30, 60, 120 or 180 minutes, vs saline control, n=1, FIG. 10) is on record?
**A.** Its value is “dilated at any time after administration as compared to the control”.

**Q.** What about the “severity of dilatation of the blood vessel diameter by blood vessel size” value ([1]; 3 mg/kg intravenously, thick 35-45 μm, medium 15-20 μm, thin 7-9 μm) of the same molecule?
**A.** Its value is “remarkably observed in the smaller blood vessels”.

**Q.** And the “bleeding area / bleeding area proportion” value ([2]; rat mesentery, LPS 20 ng/sight, 1 mg/kg intravenously then 1 mg/kg per hour, up to 180 minutes, n=1, FIGS. 12 and 13)?
**A.** The value was “no bleeding was observed after the LPS administration”.

**Q.** And the “rolling phenomena of leukocytes in the blood vessel” value ([2]; rat, after LPS instillation, compared to the control)?
**A.** Its value is “a large number of rolling phenomena of leukocytes were observed”.
